Results taken from patent US20250340543A1, “GPR84 ANTAGONISTS AND USES THEREOF” (Liminal BioSciences Limited, priority 2021, published 2025).

target: GPR84 (Homo sapiens (Human), UniProt Q9NQS5); experiment: Gai biosensor BRET assay (GPR84-mediated activation of Gai, antagonist mode against agonist ZQ-16); assay type: cell-based; settings: HEK293 cells, 200 nmol/L GPR84 agonist ZQ-16, read-out: hGPR84 IC50
How it was run: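 Transiently transfected HEK293 cells expressing GPR84, Gαi2-Rluc8, GFP10-Gγ2 and Gβ1, in Tyrode's buffer pH 7.5. Compounds pre-incubated 5 min at 37° C, then 200 nmol/L ZQ-16 for 5 min at room temperature; BRET² with coelenterazine 400A, ligand-promoted net BRET after background and vehicle subtraction.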

Chain of GPR84 (Q9NQS5 whole entry): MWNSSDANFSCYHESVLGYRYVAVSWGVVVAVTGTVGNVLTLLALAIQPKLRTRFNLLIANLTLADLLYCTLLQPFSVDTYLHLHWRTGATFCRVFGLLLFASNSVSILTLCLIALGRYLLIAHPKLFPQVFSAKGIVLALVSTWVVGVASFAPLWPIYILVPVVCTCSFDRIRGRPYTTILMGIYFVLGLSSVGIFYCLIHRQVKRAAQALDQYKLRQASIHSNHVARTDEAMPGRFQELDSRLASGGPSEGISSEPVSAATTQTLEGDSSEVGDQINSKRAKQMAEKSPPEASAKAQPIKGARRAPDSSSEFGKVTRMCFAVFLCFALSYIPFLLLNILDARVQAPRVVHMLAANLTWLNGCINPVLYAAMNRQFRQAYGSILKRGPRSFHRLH

| SMILES | IC50 [µM] |
| --- | --- |
| Cc1cc(OC[C@@H]2CCCOC2)cc(=O)n1[C@H](C)c1ccc(C#CC2CC2)cc1 [Compound I-232] | < 5 |
| Cc1cc(OCc2ncccc2Cl)cc(=O)n1[C@H](C)c1ccc(C#CC2CC2)cc1 [Compound I-256] | < 5 |
| Cc1cc(OCc2cnccn2)cc(=O)n1[C@H](C)c1ccc(C#CC2CC2)cc1 [Compound I-257] | < 5 |
| Cc1cc(OCc2ccncn2)cc(=O)n1[C@H](C)c1ccc(C#CC2CC2)cc1 [Compound I-258] | < 5 |
| Cc1cc(OCc2cccnc2)cc(=O)n1[C@H](C)c1ccc(C#CC2CC2)cc1 [Compound I-272] | < 5 |
| Cc1cc(OCc2ncccn2)cc(=O)n1C(C)c1ccc(C#CC2CC2)c(F)c1 (stereo not drawn) [Compound I-273] | < 5 |
| Cc1cc(OCc2ncccc2F)cc(=O)n1[C@H](C)c1ccc(C#CC2CC2)cc1 [Compound I-278] | < 5 |
| Cc1cc(OCc2cncnc2)cc(=O)n1[C@H](C)c1ccc(C#CC2CC2)cc1 [Compound I-283] | < 5 |
| Cc1cc(OCc2ccccn2)cc(=O)n1[C@H](C)c1ccc(C#CC2CC2)cc1 [Compound I-290] | < 5 |
| Cc1cc(OCc2cccnn2)cc(=O)n1[C@H](C)c1ccc(C#CC2CC2)cc1 [Compound I-291] | < 5 |
| Cc1cc(OCc2nccs2)cc(=O)n1[C@H](C)c1ccc(C#CC2CC2)cc1 [Compound I-293] | < 5 |
| Cc1cc(OCc2cscn2)cc(=O)n1[C@H](C)c1ccc(C#CC2CC2)cc1 [Compound I-294] | < 5 |
| Cc1cc(OCc2ncco2)cc(=O)n1[C@H](C)c1ccc(C#CC2CC2)cc1 [Compound I-296] | < 5 |
| Cc1cc(OCc2nccn2C)cc(=O)n1[C@H](C)c1ccc(C#CC2CC2)cc1 [Compound I-303] | < 5 |

same assay, conditions: compound tested at 2 μM (concentration code A)

| SMILES | inhibition at 2 µM [%] |
| --- | --- |
| Cc1c(C#CC2CC2)cccc1Cn1c(C)cc(OCc2ncccn2)cc1=O [Compound I-241] | < 25 |
| Cc1cc(OCc2ncccn2)cc(=O)n1[C@H](C)c1cccc(C#CC2CC2)c1 [Compound I-252] | < 25 |
| Cc1cc(OCc2ncccc2Cl)cc(=O)n1[C@H](C)c1ccc(C#CC2CC2)cc1 [Compound I-256] | > 75 |
| Cc1cc(OCc2cnccn2)cc(=O)n1[C@H](C)c1ccc(C#CC2CC2)cc1 [Compound I-257] | > 75 |
| Cc1cc(OCc2ccncn2)cc(=O)n1[C@H](C)c1ccc(C#CC2CC2)cc1 [Compound I-258] | > 75 |
| Cc1cc(OCc2cccnc2)cc(=O)n1[C@H](C)c1ccc(C#CC2CC2)cc1 [Compound I-272] | > 75 |
| Cc1cc(OCc2ncccc2F)cc(=O)n1[C@H](C)c1ccc(C#CC2CC2)cc1 [Compound I-278] | > 75 |
| Cc1cc(OCc2cncnc2)cc(=O)n1[C@H](C)c1ccc(C#CC2CC2)cc1 [Compound I-283] | > 75 |
| Cc1cc(OCc2cocn2)cc(=O)n1[C@H](C)c1ccc(C#CC2CC2)cc1 [Compound I-284] | > 75 |
| Cc1ccc(C#CC2CC2)cc1Cn1c(C)cc(OCc2ncccn2)cc1=O [Compound I-289] | < 25 |
| Cc1cc(OCc2ccccn2)cc(=O)n1[C@H](C)c1ccc(C#CC2CC2)cc1 [Compound I-290] | > 75 |
| Cc1cc(OCc2cccnn2)cc(=O)n1[C@H](C)c1ccc(C#CC2CC2)cc1 [Compound I-291] | > 75 |
| Cc1cc(OCc2nccs2)cc(=O)n1[C@H](C)c1ccc(C#CC2CC2)cc1 [Compound I-293] | > 75 |
| Cc1cc(OCc2nccn2C)cc(=O)n1[C@H](C)c1ccc(C#CC2CC2)cc1 [Compound I-303] | > 75 |

same assay, conditions: compound tested at 10 μM (concentration code D)

| SMILES | inhibition at 10 µM [%] |
| --- | --- |
| Cc1cc(OCC2Oc3ccccc3O2)cc(=O)n1[C@H](C)c1ccc(C#CC2CC2)cc1 [Compound I-230] | < 25 |
| Cc1cc(OC[C@@H]2COCCO2)cc(=O)n1Cc1cc(C#CC2CC2)ccn1 [Compound I-231] | < 25 |
| Cc1cc(OC[C@@H]2CCCOC2)cc(=O)n1[C@H](C)c1ccc(C#CC2CC2)cc1 [Compound I-232] | > 75 |
| Cc1cc(OC[C@@H]2COCCO2)cc(=O)n1Cc1cccc(C#CC2CC2)c1 [Compound I-233] | 25 to 50 |
| Cc1cc(OCC2COCCO2)cc(=O)n1CCc1ccc(C#CC2CC2)cc1 (stereo not drawn) [Compound I-234] | 50 to 75 |
| Cc1cc(OCc2ncccn2)cc(=O)n1[C@H](C)c1ccc(N2CC(C)(C)C2)cc1 [Compound I-235] | < 25 |
| Cc1cc(OCc2ncccn2)cc(=O)n1[C@@H](C)c1ccc(C#CC2CC2)cc1 [Compound I-236] | < 25 |
| Cc1cc(OCc2ncccn2)cc(=O)n1Cc1ccc(C#CC2CC2)cc1 [Compound I-237] | 50 to 75 |
| Cc1cc(OCc2ncccn2)cc(=O)n1CCc1ccc(C#CC2CC2)cc1 [Compound I-238] | > 75 |
| Cc1cc(C#CC2CC2)ccc1C(C)n1ccc(OC[C@@H]2COCCO2)cc1=O (stereo partly drawn) [Compound I-239] | < 25 |
| CC(c1ccc(C#CC2CC2)cn1)n1ccc(OC[C@@H]2COCCO2)cc1=O (stereo partly drawn) [Compound I-240] | 25 to 50 |
| Cc1cc(OCc2ncccn2)cc(=O)n1Cc1ccc(N2CC(C)(C)C2)cc1 [Compound I-242] | < 25 |
| Cc1cc(OCc2ncccn2)cc(=O)n1[C@H](C)c1ccc(C#N)cc1 [Compound I-243] | < 25 |
| Cc1cc(OCc2ncccn2)cc(=O)n1-c1ccc(C#CC2CC2)cc1 [Compound I-244] | < 25 |
| Cc1cc(OCc2ncccn2)cc(=O)n1-c1cccc(C#CC2CC2)c1 [Compound I-245] | < 25 |
| Cc1cc(OC[C@@H]2COCCO2)cc(=O)n1C(C)c1ccc(C#CC2CC2)cn1 (stereo partly drawn) [Compound I-246] | < 25 |
| COc1cnc(COc2cc(C)n([C@H](C)c3ccc(C#CC4CC4)cc3)c(=O)c2)nc1 [Compound I-247] | > 75 |
| CC1(C)CN(c2cccc(Cn3ccc(OCc4ncccn4)cc3=O)c2)C1 [Compound I-248] | 25 to 50 |
| CC(c1ccc(C#CC2CC2)cn1)n1ccc(OCc2ncccn2)cc1=O (stereo not drawn) [Compound I-249] | 25 to 50 |
| CC(c1cc(C#CC2CC2)ccn1)n1ccc(OCc2ncccn2)cc1=O (stereo not drawn) [Compound I-250] | 25 to 50 |

| SMILES | inhibition at 10 µM [%] |
| --- | --- |
| Cc1cc(C#CC2CC2)ccc1C(C)n1ccc(OCc2ncccn2)cc1=O (stereo not drawn) [Compound I-251] | < 25 |
| Cc1cc(OCc2ncccn2)cc(=O)n1C(C)c1ccc(C#CC2CC2)cn1 (stereo not drawn) [Compound I-253] | 50 to 75 |
| Cc1cc(C#CC2CC2)cnc1C(C)n1ccc(OCc2ncccn2)cc1=O (stereo not drawn) [Compound I-254] | < 25 |
| CC(c1ccc(NC(=O)C2CC2)cc1)n1ccc(OCc2ncccn2)cc1=O (stereo not drawn) [Compound I-255] | < 25 |
| Cc1cc(OCc2ncccn2)cc(=O)n1[C@H](C)c1ccc(C#CCN2CC(C)(C)C2)cc1 [Compound I-259] | < 25 |
| Cc1cc(OCc2ncc(Cl)cn2)cc(=O)n1[C@H](C)c1ccc(C#CC2CC2)cc1 [Compound I-260] | > 75 |
| Cc1cc(OCc2ncccn2)cc(=O)n1C(C)c1cccc(C#CC2CC2)c1 (stereo not drawn) [Compound I-261] | < 25 |
| Cc1cc(OCc2ncccn2)cc(=O)n1Cc1cccc(OCC(F)(F)F)c1 [Compound I-262] | < 25 |
| Cc1cc(OCc2ncccn2)cc(=O)n1[C@H](C)c1ccc(C#CCNCc2ccccc2)cc1 [Compound I-263] | < 25 |
| Cc1cc(OCc2ncccn2)cc(=O)n1[C@H](C)c1ccc(C#CCN(C)Cc2ccccc2)cc1 [Compound I-264] | 25 to 50 |
| Cc1cc(OCc2ncccn2)cc(=O)n1C(C)c1cc(C#CC2CC2)cs1 (stereo not drawn) [Compound I-265] | < 25 |
| Cc1cc(OCc2ncccn2)cc(=O)n1Cc1cc(C#CC2CC2)ccn1 [Compound I-266] | < 25 |
| Cc1cc(OCc2ncccn2)cc(=O)n1Cc1cccc(C#CC2CC2)c1 [Compound I-267] | < 25 |
| Cc1cc(OCc2ncccn2)cc(=O)n1Cc1cc(C#CC2CC2)ccc1F [Compound I-268] | < 25 |
| Cc1cc(OCc2ncccn2)cc(=O)n1[C@H](C)c1ccc(C#CCNC(=O)OC(C)C)cc1 [Compound I-269] | < 25 |
| Cc1cc(OCc2ncccn2)cc(=O)n1[C@H](C)c1ccc(C#CC2CC2)cc1F [Compound I-270] | < 25 |
| Cc1cc(OCc2ncccn2)cc(=O)n1Cc1cccc(N2CC(C)(C)C2)c1 [Compound I-271] | < 25 |
| Cc1cc(OCc2ncccn2)cc(=O)n1C(C)c1ccc(C#CC2CC2)c(F)c1 (stereo not drawn) [Compound I-273] | > 75 |
| Cc1cc(OCC2CCCCO2)cc(=O)n1C(C)c1ccc(OCC(F)(F)F)cc1 (stereo not drawn) [Compound I-274] | < 25 |
| Cc1cc(OCc2ncccn2)cc(=O)n1C(C)c1ccc(OCC(F)(F)F)cc1 (stereo not drawn) [Compound I-275] | < 25 |

| SMILES | inhibition at 10 µM [%] |
| --- | --- |
| Cc1cnc(COc2cc(C)n([C@H](C)c3ccc(C#CC4CC4)cc3)c(=O)c2)nc1 [Compound I-279] | > 75 |
| Cc1cc(OCc2ncccn2)cc(=O)n1Cc1cccc(C#CCNc2ccccc2)c1 [Compound I-280] | < 25 |
| Cc1cc(C#CC2CC2)cnc1C(C)n1ccc(OC[C@@H]2COCCO2)cc1=O (stereo partly drawn) [Compound I-285] | < 25 |
| CC(c1cc(C#CC2CC2)ccn1)n1ccc(OC[C@@H]2COCCO2)cc1=O (stereo partly drawn) [Compound I-286] | < 25 |
| Cc1cc(OCc2ncccn2)cc(=O)n1C(C)c1ccc(C#CC2CC2)nc1 (stereo not drawn) [Compound I-287] | 25 to 50 |
| Cc1cc(OCc2ncccn2)cc(=O)n1[C@H](C)c1ccc(C#CC2CC2)nc1 [Compound I-288] | 25 to 50 |
| Cc1cc(OCc2ncccn2)cc(=O)n1C(C)c1ccc(C#CC2CC2)s1 (stereo not drawn) [Compound I-292] | 25 to 50 |
| Cc1cc(OCc2cscn2)cc(=O)n1[C@H](C)c1ccc(C#CC2CC2)cc1 [Compound I-294] | > 75 |
| Cc1cc(OCn2cccn2)cc(=O)n1[C@H](C)c1ccc(C#CC2CC2)cc1 [Compound I-295] | > 75 |
| Cc1cc(OCc2ncco2)cc(=O)n1[C@H](C)c1ccc(C#CC2CC2)cc1 [Compound I-296] | > 75 |
| Cc1cc(OCc2ccccc2Cl)cc(=O)n1[C@H](C)c1ccc(C#CC2CC2)cc1 [Compound I-297] | < 25 |
| Cc1cc(OCc2ncccn2)cc(=O)n1[C@H](C)c1ccc(C#CC(C)C)cc1 [Compound I-298] | 50 to 75 |
| Cc1ccc([C@@H](C)n2c(C)cc(OCc3ncccn3)cc2=O)cc1 [Compound I-299] | < 25 |
| Cc1cc(OCc2ncccn2)cc(=O)n1[C@H](C)c1ccccc1 [Compound I-300] | < 25 |
| COc1ccc([C@@H](C)n2c(C)cc(OCc3ncccn3)cc2=O)cc1 [Compound I-301] | < 25 |
| Cc1cc(OCc2ncccn2)cc(=O)n1[C@H](C)c1ccc(Cl)cc1 [Compound I-304] | < 25 |
| Cc1cc(OCc2cccnc2Cl)cc(=O)n1[C@H](C)c1ccc(C#CC2CC2)cc1 [Compound I-305] | > 75 |
| Cc1cc(OCc2cc(Cl)ccn2)cc(=O)n1[C@H](C)c1ccc(C#CC2CC2)cc1 [Compound I-306] | 25 to 50 |
| Cc1cc(OCc2ncccn2)cc(=O)n1C(C)c1ccc(Oc2ccccc2)cc1 (stereo not drawn) [Compound I-307] | < 25 |
